Tests used:
Assay type in all cases: biochemical
HDAC6 enzyme = target: T1, HDAC6 enzyme (Homo sapiens, UniProt Q9UBN7); experiment: HDAC6 enzyme inhibitory assay (HDAC-Glo I/II Assay kit); conditions: 1 μM test compound; wells without enzyme = 100% inhibition; read-out: HDAC6 inhibitory rate (%) (1 μM)
T1 construct: transducing full length HDAC1 and HDAC6 genes into Sf-9 insect cells; GST; purchased SignalChem; host or cells: Sf-9 insect cells
T1 sequence (Q9UBN7 1-1215): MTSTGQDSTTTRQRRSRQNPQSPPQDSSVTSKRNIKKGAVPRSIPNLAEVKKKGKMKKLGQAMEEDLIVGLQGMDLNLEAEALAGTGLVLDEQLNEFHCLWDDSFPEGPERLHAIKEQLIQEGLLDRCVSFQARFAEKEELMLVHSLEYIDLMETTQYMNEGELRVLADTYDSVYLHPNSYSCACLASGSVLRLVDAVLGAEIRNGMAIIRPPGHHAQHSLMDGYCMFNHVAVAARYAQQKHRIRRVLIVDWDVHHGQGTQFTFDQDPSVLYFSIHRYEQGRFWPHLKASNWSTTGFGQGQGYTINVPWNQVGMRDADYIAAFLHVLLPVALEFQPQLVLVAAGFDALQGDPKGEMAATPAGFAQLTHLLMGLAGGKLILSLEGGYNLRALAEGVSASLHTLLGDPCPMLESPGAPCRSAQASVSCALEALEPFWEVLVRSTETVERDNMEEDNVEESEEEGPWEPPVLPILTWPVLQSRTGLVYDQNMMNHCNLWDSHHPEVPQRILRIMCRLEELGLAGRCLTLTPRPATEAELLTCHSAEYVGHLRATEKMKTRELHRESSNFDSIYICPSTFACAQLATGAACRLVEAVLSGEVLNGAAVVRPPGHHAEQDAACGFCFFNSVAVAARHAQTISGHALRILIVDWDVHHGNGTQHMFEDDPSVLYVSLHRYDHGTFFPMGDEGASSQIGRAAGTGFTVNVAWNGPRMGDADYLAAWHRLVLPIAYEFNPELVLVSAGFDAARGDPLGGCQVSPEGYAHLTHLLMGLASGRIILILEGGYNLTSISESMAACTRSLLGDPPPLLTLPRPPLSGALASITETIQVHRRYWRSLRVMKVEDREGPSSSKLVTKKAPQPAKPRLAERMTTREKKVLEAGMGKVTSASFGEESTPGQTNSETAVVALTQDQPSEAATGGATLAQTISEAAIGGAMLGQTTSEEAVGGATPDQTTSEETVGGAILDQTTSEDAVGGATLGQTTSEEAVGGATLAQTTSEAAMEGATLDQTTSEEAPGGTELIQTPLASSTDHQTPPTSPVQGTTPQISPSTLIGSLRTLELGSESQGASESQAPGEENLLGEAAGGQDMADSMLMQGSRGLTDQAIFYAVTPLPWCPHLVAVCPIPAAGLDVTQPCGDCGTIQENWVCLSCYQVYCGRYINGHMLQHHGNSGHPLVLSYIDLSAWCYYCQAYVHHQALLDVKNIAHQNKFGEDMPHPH
Experimental: (§1) HDAC1/6 Enzyme Inhibitory Assay
(§2) HDAC1 enzyme and HDAC6 enzyme each prepared by transducing full length HDAC1 and HDAC6 genes into Sf-9 insect cells and purifying by GST affinity column were purchased from SignalChem. Using these enzymes, HDAC1 and/or HDAC6 enzyme inhibitory activities of the compound of the present invention were evaluated. Enzymes were used after preserved at −70° C. HDAC1 or HDAC6 enzyme inhibitory activity of the compound of the present invention was measured using HDAC-Glo™ I/II Assay kit (Promega) according to the following experimental method. The test compound diluted with assay buffer (24 mM Tris-HCl (pH 7.5), 1 mM MgCl2, 0.35 mM KCl, 135 mM NaCl, 0.6 mM Glutathione, 0.01% Tween-20) was added to a 384-well plate by each 2 μL. Then, HDAC1 or HDAC6 enzyme solution diluted with assay buffer was added thereto by each 4 μL, and the plate was incubated at room temperature for 60 min. After incubated, HDAC substrate-Developer solution prepared according to Promega protocol attached to the assay kit was added to the 384-well plate by each 2 μL, and the enzyme reaction was started. After reacting at room temperature for 20 min, luminescence level was measured using plate reader Envision (PerkinElmer). The inhibitory activity of each compound was calculated as a relative activity value when luminescence level in wells without enzyme is considered as 100% inhibition.

HDAC1 enzyme = target: T2, HDAC1 enzyme (Homo sapiens, UniProt Q13547); experiment: HDAC1 enzyme inhibitory assay (HDAC-Glo I/II Assay kit); conditions: 1 μM test compound; wells without enzyme = 100% inhibition; read-out: HDAC1 inhibitory rate (%) (1 μM)
T2 construct: transducing full length HDAC1 and HDAC6 genes into Sf-9 insect cells; GST; purchased SignalChem; host or cells: Sf-9 insect cells
T2 sequence (Q13547 whole entry): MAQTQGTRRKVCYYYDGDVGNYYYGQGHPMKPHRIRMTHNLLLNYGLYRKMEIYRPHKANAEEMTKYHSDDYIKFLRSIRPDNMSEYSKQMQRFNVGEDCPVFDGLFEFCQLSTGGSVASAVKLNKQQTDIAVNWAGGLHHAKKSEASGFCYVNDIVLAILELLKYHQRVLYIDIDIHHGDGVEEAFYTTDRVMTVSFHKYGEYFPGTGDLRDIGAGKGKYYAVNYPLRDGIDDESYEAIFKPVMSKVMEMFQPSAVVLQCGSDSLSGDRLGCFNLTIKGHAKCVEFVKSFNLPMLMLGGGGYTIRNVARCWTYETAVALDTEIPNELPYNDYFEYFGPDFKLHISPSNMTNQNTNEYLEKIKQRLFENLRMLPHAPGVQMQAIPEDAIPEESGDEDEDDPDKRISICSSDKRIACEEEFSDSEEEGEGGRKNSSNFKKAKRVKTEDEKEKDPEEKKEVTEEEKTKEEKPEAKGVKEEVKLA
Experimental: as §1, §2

HDAC9 enzyme = target: T3, HDAC9 enzyme (Homo sapiens, UniProt Q9UKV0); experiment: HDAC9 enzyme inhibitory assay (HDAC-Glo class IIa); conditions: 1 μM test compound; wells without enzyme = 100% inhibition; read-out: HDAC9 inhibitory rate (%) (1 μM)
T3 construct: transducing full length HDAC9 gene into Sf-9 insect cells; made in house; host or cells: Sf-9 insect cells
T3 sequence (Q9UKV0 whole entry, species assumed): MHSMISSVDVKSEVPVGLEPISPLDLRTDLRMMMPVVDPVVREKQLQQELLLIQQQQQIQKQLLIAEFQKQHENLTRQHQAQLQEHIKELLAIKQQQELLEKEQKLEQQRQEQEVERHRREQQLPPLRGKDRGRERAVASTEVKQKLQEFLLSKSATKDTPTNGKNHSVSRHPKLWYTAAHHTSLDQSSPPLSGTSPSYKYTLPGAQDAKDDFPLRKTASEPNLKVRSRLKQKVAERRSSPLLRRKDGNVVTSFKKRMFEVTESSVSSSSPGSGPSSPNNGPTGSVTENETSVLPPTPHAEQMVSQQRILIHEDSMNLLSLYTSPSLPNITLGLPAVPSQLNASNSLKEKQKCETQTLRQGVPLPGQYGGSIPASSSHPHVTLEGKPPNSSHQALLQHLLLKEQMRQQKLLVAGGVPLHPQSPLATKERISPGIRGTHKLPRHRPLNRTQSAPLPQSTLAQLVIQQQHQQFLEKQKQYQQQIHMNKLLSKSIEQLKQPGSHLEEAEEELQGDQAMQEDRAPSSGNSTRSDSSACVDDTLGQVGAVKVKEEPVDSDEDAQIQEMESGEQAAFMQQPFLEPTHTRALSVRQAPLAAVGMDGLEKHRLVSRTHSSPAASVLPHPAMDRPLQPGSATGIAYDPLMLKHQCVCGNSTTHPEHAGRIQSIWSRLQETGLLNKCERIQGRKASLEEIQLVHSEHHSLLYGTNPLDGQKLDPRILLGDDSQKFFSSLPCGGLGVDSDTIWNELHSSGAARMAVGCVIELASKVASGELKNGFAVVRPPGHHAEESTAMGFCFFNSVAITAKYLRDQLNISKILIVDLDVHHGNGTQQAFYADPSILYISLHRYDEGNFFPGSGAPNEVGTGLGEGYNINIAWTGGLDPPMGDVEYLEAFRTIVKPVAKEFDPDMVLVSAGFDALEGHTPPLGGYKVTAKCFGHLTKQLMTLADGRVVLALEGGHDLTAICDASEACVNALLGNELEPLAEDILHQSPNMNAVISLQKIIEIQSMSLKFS
Experimental: HDAC9 Enzyme Inhibitory Assay
Enzyme was prepared by transducing full length HDAC9 gene into Sf-9 insect cells and purifying by Ni-NTA affinity column, and HDAC9 enzyme inhibitory activity was evaluated. Enzymes were used after preserved at −70° C. HDAC9 enzyme inhibitory activity of the test compound was measured using HDAC-Glo class IIa (Promega) according to the following experimental method. The test compound diluted with assay buffer (24 mM Tris-HCl (pH 7.5), 1 mM MgCl2, 0.35 mM KCl, 135 mM NaCl, 0.6 mM Glutathione, 0.01% Tween-20) was added to a 384-well plate by each 2 μL. Then, HDAC9 enzyme solution diluted with assay buffer was added thereto by each 2 μL, and the plate was incubated at room temperature for 60 min. After incubated, HDAC substrate-Developer solution prepared according to Promega protocol was added to the 384-well plate by each 4 μL, and the enzyme reaction was started. After reacting at room temperature for 20 min, luminescence level was measured using plate reader Envision (PerkinElmer). The inhibitory activity of each compound was calculated as a relative activity value when luminescence level in wells without enzyme is considered as 100% inhibition.

| inhibition at 1 µM (HDAC6 enzyme) [%] | inhibition at 1 µM (HDAC1 enzyme) [%] | inhibition at 1 µM (HDAC9 enzyme) [%] | SMILES |
| --- | --- | --- | --- |
| 99 | 55 | 90 | C[C@H](c1ccccc1)N1Cc2ncc(-c3noc(C(F)(F)F)n3)cc2C1=O [Example 39, 6-((1R)-1-phenylethyl)-3-(5-(trifluoromethyl)-1,2,4-oxadiazol-3-yl)-6,7-dihydro-5H-pyrrolo[3,4-b]pyridin-5-one] |
| 97 | 6 | 61 | CN(c1ncccc1CN1Cc2ccc(-c3noc(C(F)(F)F)n3)cc2C1=O)S(C)(=O)=O [Example 35, N-methyl-N-(3-((1-oxo-6-(5-(trifluoromethyl)-1,2,4-oxadiazol-3-yl)-1,3-dihydro-2H-isoindol-2-yl)methyl)pyridin-2-yl)methanesulfonamide] |
